Results on 25 compounds are retold here after ChEMBL document CHEMBL5113417, “Discovery of 4-(3-aminopyrrolidinyl)-3-aryl-5-(benzimidazol-2-yl)-pyridines as potent and selective SST5 agonists for the treatment of congenital hyperinsulinism” (Bioorg Med Chem Lett, 2022).

The target in data set [1] is Somatostatin receptor type 5 (Homo sapiens, UniProt P35346). The data set can be described thus: Agonist activity at human SST5 expressed in CHO-K1 cells assessed as reduction in NKH477-induced intracellular cAMP level. The class given is functional, cell-based. (Changes in cAMP serve as a functional read-out for many G protein-coupled receptors.)
The target in data set [2] is Somatostatin receptor type 1 (Homo sapiens, UniProt P30872). The data set can be described thus: Agonist activity at human SST1. The class given is functional.
The target in data set [3] is Somatostatin receptor type 2 (Homo sapiens, UniProt P30874). The data set can be described thus: Agonist activity at human SST2. The class given is functional.
Data set [4] deals with Somatostatin receptor type 3 (Homo sapiens, UniProt P32745). The data set can be described thus: Agonist activity at human SST3. The data set is classed as functional.
Data set [5] addresses Somatostatin receptor type 4 (Homo sapiens, UniProt P31391). The data set can be described thus: Agonist activity at human SST4. The class given is functional.
Data set [6] addresses Somatostatin receptor type 5 (Rattus norvegicus, UniProt P30938). The data set can be described thus: Agonist activity at rat SST5. The class given is functional.
In data set [7] the target is Voltage-gated inwardly rectifying potassium channel KCNH2 (Homo sapiens, UniProt Q12809). The data set can be described thus: Inhibition of hERG by patch clamp assay. The data set is classed as toxicity.
The target in data set [8] is T1, Cytochrome P450 2D6 (Homo sapiens, UniProt P10635). The data set can be described thus: Inhibition of CYP2D6 (unknown origin). The data set is classed as ADME.
Data set [9] concerns the target T1, Cytochrome P450 2D6. The data set can be described thus: Inhibition of CYP2D6 (unknown origin) preincubated for 30 mins. The data set is classed as ADME.
The target in data set [10] is T2, Cytochrome P450 3A4 (Homo sapiens, UniProt P08684). The data set can be described thus: Inhibition of CYP3A4 (unknown origin). The data set is classed as ADME.
Data set [11] deals with T2, Cytochrome P450 3A4. The data set can be described thus: Inhibition of CYP3A4 (unknown origin) preincubated for 30 mins. The data set is classed as ADME.
Data set [12] can be described thus: Metabolic stability in human liver microsomes assessed as intrinsic clearance. The class given is ADME, Microsome. A general note: Liver microsomes are a subcellular fraction often used to study metabolism.
Data set [13] is described as follows: Metabolic stability in rat liver microsomes assessed as intrinsic clearance. The class given is ADME, Microsome.
The nature of data set [14]: Half life in Sprague-Dawley rat at 2.5 mg/kg, iv. The class given is ADME, organism-based. The conditions noted are these: in vivo.
Data set [15] is described as follows: Volume of distribution at steady state in Sprague-Dawley rat at 2.5 mg/kg, iv. The class given is ADME, organism-based. The conditions noted are these: in vivo.
The nature of data set [16]: Cmax in Sprague-Dawley rat at 10 mg/kg, po. The data set is classed as ADME, organism-based. The arrangement: dose 10 mg/kg, route po. The conditions noted are these: in vivo.
A short description of data set [17]: AUC(0 to infinity) in Sprague-Dawley rat at 10 mg/kg, po. The class given is ADME, organism-based. The arrangement: time infinity, dose 10 mg/kg, route po. The following applies: in vivo.
A short description of data set [18]: Oral bioavailability in Sprague-Dawley rat at 10 mg/kg. The class given is ADME, organism-based. The following applies: in vivo.
The target of data set [19] is T1, Cytochrome P450 2D6. The data set can be described thus: Time dependent inhibition of CYP2D6 (unknown origin). The data set is classed as ADME.
Data set [20] addresses T1, Cytochrome P450 2D6. The data set can be described thus: Time dependent inhibition of CYP2D6 (unknown origin) preincubated for 30 mins. The class given is ADME.
Another data set concerns the target Cytochrome P450 2C9 (Homo sapiens, UniProt P11712). The data set can be described thus: Inhibition of CYP2C9 (unknown origin) by fluorescent assay. The data set is classed as ADME.
A further data set addresses Cytochrome P450 2C19 (Homo sapiens, UniProt P33261). The data set can be described thus: Inhibition of CYP2C19 (unknown origin) by fluorescent assay. The data set is classed as ADME.
Data set [21] is described as follows: Metabolic stability in human liver microsomes assessed as half life. The class given is ADME, Microsome.
Data set [22] is described as follows: Metabolic stability in rat liver microsomes assessed as half life. The class given is ADME, Microsome.
Data set [23] is described as follows: Metabolic stability in dog liver microsomes assessed as half life. The data set is classed as ADME, Canis lupus familiaris, Microsome.
The nature of data set [24]: Metabolic stability in monkey liver microsomes assessed as half life. The class given is ADME, Macaca mulatta, Microsome. The conditions noted are these: rhesus monkey.
Data set [25] in a line: Metabolic stability in monkey liver microsomes assessed as intrinsic clearance. The data set is classed as ADME, Macaca mulatta, Microsome. The conditions noted are these: rhesus monkey.
A short description of data set [26]: Half life in Sprague-Dawley rat at 5 mg/kg, iv. The following applies: in vivo. The class given is ADME, organism-based.
Data set [27] in a line: Half life in Beagle dog at 2.5 mg/kg, iv. The data set is classed as ADME, organism-based, Canis lupus familiaris. The following applies: in vivo.
Data set [28] in a line: Volume of distribution at steady state in Sprague-Dawley rat at 5 mg/kg, iv. The conditions noted are these: in vivo. The class given is ADME, organism-based.
Data set [29] is described as follows: Volume of distribution at steady state in Beagle dog at 2.5 mg/kg, iv. The data set is classed as ADME, organism-based, Canis lupus familiaris. The following applies: in vivo.
The nature of data set [30]: Cmax in Beagle dog at 5 mg/kg, po. The arrangement: dose 5 mg/kg, route po. The following applies: in vivo. The data set is classed as ADME, organism-based, Canis lupus familiaris.
Data set [31] in a line: AUC(0 to infinity) in Beagle dog at 5 mg/kg, po. The data set is classed as ADME, organism-based, Canis lupus familiaris. The arrangement: time infinity, dose 5 mg/kg, route po. The conditions noted are these: in vivo.
Data set [32] in a line: Oral bioavailability in Beagle dog at 5 mg/kg. The data set is classed as ADME, organism-based, Canis lupus familiaris. The following applies: in vivo.

Bounds are passed on as bounds.

T2 sequence (P08684 whole entry): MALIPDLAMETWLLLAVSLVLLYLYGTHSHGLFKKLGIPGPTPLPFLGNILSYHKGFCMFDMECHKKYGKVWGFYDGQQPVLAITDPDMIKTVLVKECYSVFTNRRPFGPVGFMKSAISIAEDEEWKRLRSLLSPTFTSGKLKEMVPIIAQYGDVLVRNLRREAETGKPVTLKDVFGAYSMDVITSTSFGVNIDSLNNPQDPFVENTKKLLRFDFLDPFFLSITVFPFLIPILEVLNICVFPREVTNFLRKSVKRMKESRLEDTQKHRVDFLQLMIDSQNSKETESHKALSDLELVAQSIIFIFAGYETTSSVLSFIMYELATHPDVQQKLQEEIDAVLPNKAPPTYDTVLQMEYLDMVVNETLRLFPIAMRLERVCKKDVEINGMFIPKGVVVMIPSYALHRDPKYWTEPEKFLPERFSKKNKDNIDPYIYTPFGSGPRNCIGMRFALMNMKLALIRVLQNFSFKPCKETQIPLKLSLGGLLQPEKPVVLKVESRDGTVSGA
Chain of Somatostatin receptor type 5 (Homo sapiens, UniProt P35346) (P35346 whole entry): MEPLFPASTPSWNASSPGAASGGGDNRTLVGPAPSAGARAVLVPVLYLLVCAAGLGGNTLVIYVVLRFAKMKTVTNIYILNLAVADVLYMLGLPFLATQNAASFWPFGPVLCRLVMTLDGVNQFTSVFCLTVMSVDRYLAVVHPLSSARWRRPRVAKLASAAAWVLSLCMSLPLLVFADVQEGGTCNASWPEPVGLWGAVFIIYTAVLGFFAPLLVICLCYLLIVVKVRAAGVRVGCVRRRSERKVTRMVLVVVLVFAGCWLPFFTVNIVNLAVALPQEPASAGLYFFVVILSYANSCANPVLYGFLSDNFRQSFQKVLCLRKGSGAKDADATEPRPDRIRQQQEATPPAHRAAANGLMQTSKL
T1 sequence (P10635 whole entry): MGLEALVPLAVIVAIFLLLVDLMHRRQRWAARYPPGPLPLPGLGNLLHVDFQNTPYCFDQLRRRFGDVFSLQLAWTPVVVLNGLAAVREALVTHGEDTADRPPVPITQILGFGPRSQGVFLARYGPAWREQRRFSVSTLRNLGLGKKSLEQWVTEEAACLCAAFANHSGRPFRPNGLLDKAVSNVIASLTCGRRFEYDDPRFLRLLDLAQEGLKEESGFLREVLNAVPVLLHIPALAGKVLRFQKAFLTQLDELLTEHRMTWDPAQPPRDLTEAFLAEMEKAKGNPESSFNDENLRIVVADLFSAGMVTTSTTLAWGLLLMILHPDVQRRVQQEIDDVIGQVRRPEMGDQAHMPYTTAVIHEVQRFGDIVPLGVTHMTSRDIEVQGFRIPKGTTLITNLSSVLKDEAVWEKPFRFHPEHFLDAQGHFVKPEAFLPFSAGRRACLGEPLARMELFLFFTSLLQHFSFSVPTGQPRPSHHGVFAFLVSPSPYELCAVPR
Chain of Somatostatin receptor type 2 (P30874 whole entry): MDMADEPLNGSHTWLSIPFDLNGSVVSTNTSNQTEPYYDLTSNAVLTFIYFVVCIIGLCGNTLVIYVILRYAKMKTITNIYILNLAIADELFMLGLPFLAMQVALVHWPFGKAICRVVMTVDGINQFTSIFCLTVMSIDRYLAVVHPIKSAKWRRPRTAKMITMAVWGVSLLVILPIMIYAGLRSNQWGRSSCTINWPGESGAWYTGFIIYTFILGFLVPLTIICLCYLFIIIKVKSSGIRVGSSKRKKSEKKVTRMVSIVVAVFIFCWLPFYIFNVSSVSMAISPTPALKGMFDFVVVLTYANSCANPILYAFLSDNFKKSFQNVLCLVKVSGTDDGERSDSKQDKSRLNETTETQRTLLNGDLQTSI
Chain of Somatostatin receptor type 1 (P30872 whole entry): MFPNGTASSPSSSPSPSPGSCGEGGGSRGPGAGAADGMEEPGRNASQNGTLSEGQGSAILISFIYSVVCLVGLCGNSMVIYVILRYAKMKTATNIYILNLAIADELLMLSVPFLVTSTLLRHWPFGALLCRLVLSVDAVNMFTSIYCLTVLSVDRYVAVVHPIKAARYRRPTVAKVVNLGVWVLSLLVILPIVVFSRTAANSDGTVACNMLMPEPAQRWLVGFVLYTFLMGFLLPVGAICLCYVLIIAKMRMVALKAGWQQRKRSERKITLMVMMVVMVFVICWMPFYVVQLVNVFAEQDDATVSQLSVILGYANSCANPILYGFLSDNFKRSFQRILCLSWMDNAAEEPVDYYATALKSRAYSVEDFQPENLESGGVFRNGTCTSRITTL
Chain of Cytochrome P450 2C19 (P33261 whole entry): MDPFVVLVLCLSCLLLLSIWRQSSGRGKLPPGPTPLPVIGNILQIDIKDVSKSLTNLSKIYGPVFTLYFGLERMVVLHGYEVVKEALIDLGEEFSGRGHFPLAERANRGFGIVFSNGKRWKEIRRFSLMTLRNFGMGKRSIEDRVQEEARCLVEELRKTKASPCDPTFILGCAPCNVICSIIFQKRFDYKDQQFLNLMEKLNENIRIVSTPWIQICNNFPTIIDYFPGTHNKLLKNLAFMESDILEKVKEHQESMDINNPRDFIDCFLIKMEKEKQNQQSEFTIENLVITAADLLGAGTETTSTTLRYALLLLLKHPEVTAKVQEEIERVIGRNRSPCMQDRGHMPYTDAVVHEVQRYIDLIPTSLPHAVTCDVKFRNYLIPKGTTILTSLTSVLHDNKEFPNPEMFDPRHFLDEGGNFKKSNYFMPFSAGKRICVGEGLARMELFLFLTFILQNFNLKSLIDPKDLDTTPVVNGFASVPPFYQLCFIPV
Chain of Somatostatin receptor type 3 (P32745 whole entry): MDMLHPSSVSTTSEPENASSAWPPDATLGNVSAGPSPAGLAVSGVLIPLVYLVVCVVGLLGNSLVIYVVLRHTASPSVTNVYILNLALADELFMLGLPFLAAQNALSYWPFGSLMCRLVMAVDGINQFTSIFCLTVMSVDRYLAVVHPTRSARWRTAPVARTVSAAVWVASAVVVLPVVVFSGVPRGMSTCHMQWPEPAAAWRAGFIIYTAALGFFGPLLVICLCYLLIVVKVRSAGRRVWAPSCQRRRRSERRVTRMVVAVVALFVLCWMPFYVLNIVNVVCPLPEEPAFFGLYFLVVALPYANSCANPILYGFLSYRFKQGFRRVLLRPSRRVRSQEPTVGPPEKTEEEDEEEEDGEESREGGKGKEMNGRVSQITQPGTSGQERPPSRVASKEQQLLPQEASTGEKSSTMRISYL
Chain of Somatostatin receptor type 5 (Rattus norvegicus, UniProt P30938) (P30938 whole entry, looked up): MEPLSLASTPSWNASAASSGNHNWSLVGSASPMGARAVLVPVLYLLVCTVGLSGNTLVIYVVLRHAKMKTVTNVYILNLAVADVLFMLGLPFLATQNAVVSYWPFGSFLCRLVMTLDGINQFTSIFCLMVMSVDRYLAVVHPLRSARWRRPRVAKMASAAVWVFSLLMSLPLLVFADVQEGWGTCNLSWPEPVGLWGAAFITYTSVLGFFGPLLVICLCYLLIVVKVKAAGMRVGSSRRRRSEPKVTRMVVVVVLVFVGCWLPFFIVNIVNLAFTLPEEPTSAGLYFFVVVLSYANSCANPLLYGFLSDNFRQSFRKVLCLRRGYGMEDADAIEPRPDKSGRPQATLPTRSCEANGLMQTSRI
Chain of Voltage-gated inwardly rectifying potassium channel KCNH2 (Q12809 whole entry): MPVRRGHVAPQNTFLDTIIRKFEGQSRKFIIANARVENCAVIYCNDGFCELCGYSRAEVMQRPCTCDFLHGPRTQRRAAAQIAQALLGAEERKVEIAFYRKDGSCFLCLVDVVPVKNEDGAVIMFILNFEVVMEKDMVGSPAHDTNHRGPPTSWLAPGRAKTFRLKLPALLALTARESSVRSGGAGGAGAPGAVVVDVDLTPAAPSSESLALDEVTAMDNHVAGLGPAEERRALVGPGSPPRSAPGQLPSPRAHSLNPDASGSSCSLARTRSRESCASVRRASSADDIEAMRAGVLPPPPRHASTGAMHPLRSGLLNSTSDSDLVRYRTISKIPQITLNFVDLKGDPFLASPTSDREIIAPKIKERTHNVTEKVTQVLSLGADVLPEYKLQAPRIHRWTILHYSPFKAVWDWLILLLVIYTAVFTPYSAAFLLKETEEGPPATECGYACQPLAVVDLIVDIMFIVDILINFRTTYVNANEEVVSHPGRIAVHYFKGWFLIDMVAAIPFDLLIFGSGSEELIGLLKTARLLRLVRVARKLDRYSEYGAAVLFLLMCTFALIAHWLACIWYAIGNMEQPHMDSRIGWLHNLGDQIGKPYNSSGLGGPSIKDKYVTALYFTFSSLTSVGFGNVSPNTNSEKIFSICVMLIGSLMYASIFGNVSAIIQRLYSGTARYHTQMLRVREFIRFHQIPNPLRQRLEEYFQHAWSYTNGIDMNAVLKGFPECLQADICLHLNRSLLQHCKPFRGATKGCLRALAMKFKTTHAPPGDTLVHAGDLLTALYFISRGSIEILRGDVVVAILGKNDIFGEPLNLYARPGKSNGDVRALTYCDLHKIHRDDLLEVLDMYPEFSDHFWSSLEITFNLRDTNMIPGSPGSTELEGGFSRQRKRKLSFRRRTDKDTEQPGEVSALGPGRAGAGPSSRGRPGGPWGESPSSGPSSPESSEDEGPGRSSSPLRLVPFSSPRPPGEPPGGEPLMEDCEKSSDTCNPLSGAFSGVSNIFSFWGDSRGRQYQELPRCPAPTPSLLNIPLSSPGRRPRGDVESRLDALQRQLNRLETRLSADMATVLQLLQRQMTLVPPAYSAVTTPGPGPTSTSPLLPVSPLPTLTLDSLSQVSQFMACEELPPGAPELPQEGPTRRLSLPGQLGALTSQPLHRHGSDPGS
Chain of Somatostatin receptor type 4 (P31391 whole entry): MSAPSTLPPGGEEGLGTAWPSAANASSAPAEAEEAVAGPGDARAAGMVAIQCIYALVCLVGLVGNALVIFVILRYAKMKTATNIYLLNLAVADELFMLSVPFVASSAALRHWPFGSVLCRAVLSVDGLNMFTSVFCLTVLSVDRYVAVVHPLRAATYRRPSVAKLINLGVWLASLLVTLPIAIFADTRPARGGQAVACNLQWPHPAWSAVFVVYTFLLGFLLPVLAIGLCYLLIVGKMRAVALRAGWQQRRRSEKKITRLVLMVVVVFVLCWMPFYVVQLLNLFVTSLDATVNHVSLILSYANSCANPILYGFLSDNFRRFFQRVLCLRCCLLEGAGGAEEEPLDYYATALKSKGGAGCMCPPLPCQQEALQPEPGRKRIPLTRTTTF

For the compound `NCC1CN(c2c(-c3cccc(Cl)c3)cncc2-c2nc3c(F)cc(F)cc3[nH]2)C1`, the EC50 in [1] is 0.36 nM.
One may read the pEC50 as the EC50 on a negative log10 scale, so that one unit is a factor of ten. For orientation: IC50 means the point on the concentration scale where inhibition reaches its midpoint. As to `Cc1ccc(F)c2[nH]c(-c3cncc(-c4cc(F)cc(C#N)c4)c3N3CC[C@H](N)C3)nc12`, the EC50 was 0.23 nM in data set [1]; > 1000 nM in data set [2]; 251 nM in data set [3] (read-out: pEC50 (converted)); 10 nM in [4]; 3.98 nM in data set [5]; 0.31 nM in [6]. Moreover, the pEC50 in [2] was < 6. Further, the IC50 in [7] was 280 nM; against Cytochrome P450 2D6 [8], 5300 nM; at Cytochrome P450 2D6 [9], 4000 nM; at Cytochrome P450 3A4 [10], > 10000 nM; against Cytochrome P450 3A4 [11] it was > 10000 nM.
The Vdss is a proportionality between amount in the body and measured concentration, not a real space. By Cmax is commonly meant the peak of the concentration-time curve. One may read the AUC(0-inf) as total exposure, with the tail of the curve extrapolated. One may read the bioavailability as dose-corrected exposure relative to a reference, in per cent. Regarding `N[C@H]1CCN(c2c(-c3cc(F)cc(Cl)c3)cncc2-c2nc3c(F)cccc3[nH]2)C1`, the CLH was determined as 10 mL/min/g in data set [12] and 14 mL/min/g in [13]. In [14], the t1/2 stood at 7.1 min. The Vdss in data set [15] is 22 L/kg. Also, the Cmax in data set [16] came out at 181 ng/mL. The compound also displayed an AUC(0-inf) in data set [17] of 2480 ng·h/mL. This compound came in with a bioavailability in [18] of 74%. Further, the figures for the IC50 on Cytochrome P450 2D6 [19] and against Cytochrome P450 2D6 [20] were 400 nM and 90 nM, respectively.
On to `N#Cc1cc(-c2cncc(-c3nc4c(F)cccc4[nH]3)c2N2CC[C@H](N)C2)ccc1F`, for which, in data set [1], the EC50 was 0.62 nM.
Same read-out and setting: for `CC1(N)CCN(c2c(-c3cccc(C#N)c3)cncc2-c2nc3c(F)cccc3[nH]2)C1` (stereo not drawn) the value was 0.071 nM; for `Cc1cccc(-c2cncc(-c3nc4c(F)cc(F)cc4[nH]3)c2N2CC(CN)C2)c1`, 2.3 nM.
On to `Cc1cc(F)cc(-c2cncc(-c3nc4cc(F)ccc4[nH]3)c2N2CC(CN)C2)c1`, for which the EC50 in data set [3] (read-out: EC50) was > 1000 nM.
As for `N#Cc1cccc(-c2cncc(-c3nc4c(F)cc(F)cc4[nH]3)c2N2CC(CN)C2)c1`, the EC50 in [1] came to 2.6 nM.
For the compound `Cc1cc(F)cc(-c2cncc(-c3nc4c(F)cc(F)cc4[nH]3)c2N2CC(C)(CN)C2)c1`, in data set [1], the EC50 stood at 2.3 nM.
As for `Cc1cc(F)cc(-c2cncc(-c3nc4c(F)cc(F)cc4[nH]3)c2N2CC(CN)C2)c1`, the EC50 in data set [1] turned out to be 2.2 nM.
Regarding `NCC1CN(c2c(-c3cccc(F)c3)cncc2-c2nc3c(F)cc(F)cc3[nH]2)C1`, the EC50 in [1] worked out at 6.1 nM.
As to `Cc1cc(F)cc(-c2cncc(-c3nc4c(C#N)cccc4[nH]3)c2N2CC(CN)C2)c1`, the EC50 in data set [1] was determined as 19 nM.
With `CC(N)C1CN(c2c(-c3cc(F)cc(C(F)(F)F)c3)cncc2-c2nc3c(F)cc(F)cc3[nH]2)C1` (stereo not drawn), in data set [1], the EC50 was determined as 0.27 nM.
Consider `N#Cc1ccc(-c2cncc(-c3nc4c(F)cccc4[nH]3)c2N2CC[C@H](N)C2)cc1F`, for which, in [1], the EC50 worked out at 45 nM.
Regarding `Cc1cc(F)cc(-c2cncc(-c3nc4c(Cl)cccc4[nH]3)c2N2CC(CN)C2)c1`, in [1], the EC50 turned out to be 1.2 nM.
The half-life is how long it takes for the measured level to halve. Consider `Cc1cccc2[nH]c(-c3cncc(-c4cc(F)cc(C#N)c4)c3N3CC[C@H](N)C3)nc12`, for which the CLH in [12] amounted to 2 mL/min/g; in data set [13], 2 mL/min/g; in [25], 94.3 mL/min/g. In addition, the Cmax in data set [16] is 78 ng/mL; in data set [30], 324 ng/mL. The values for the AUC(0-inf) in data set [17] and in data set [31] were 951 ng·h/mL and 4660 ng·h/mL, respectively. The bioavailability in data set [18] came out at 33%; in [32] it was 55%. In data set [6], this compound had an EC50 of […]. Also, the IC50 is […] in data set [7]; > 10000 nM against Cytochrome P450 2C9; > 10000 nM against Cytochrome P450 2C19; 10000 nM on Cytochrome P450 2D6 [8]; 7500 nM against Cytochrome P450 2D6 [9]; > 10000 nM at Cytochrome P450 3A4 [10]. Also, on Cytochrome P450 3A4 [11], the IC50 is > 10000 nM. Further, the half-life in data set [21] was > 693 min; in data set [22], > 693 min; in data set [23], […]; in data set [24] it was […]. Further, the t1/2 in [26] came to […]; in data set [27] it was 16.9 min. Moreover, the Vdss in [28] was determined as 17 L/kg; in data set [29], 12.9 L/kg.
As for `N#Cc1cccc(-c2cncc(-c3nc4c(F)cccc4[nH]3)c2N2CCC(N)(CO)C2)c1` (stereo not drawn), in data set [1], the EC50 was 1 nM.
As to `Cc1c(F)ccc2[nH]c(-c3cncc(-c4cc(F)cc(C#N)c4)c3N3CC[C@H](N)C3)nc12`, in [1], the EC50 was 0.65 nM.
The same measure, in the same setting: for `NCC1CN(c2c(-c3nc4c(F)cc(F)cc4[nH]3)cncc2-c2ccccc2F)C1` the value was 400 nM.
As for `N#Cc1cccc(-c2cncc(-c3nc4c(F)cccc4[nH]3)c2N2CC[C@H](N)C2)c1`, the EC50 in data set [1] was determined as 0.55 nM.
Same read-out and setting: the same measure for `Cc1cc(F)cc2[nH]c(-c3cncc(-c4cc(F)cc(C#N)c4)c3N3CC[C@H](N)C3)nc12`: 2.1 nM; for `Cc1cccc2c1nc(-c1cncc(-c3cc(F)cc(C#N)c3)c1N1CC[C@H](N)C1)n2C`: 4.2 nM.
With `C[C@]1(N)CCN(c2c(-c3cccc(C#N)c3)cncc2-c2nc3c(F)cccc3[nH]2)C1`, the EC50 in data set [1] was found to be 0.047 nM.
For `N#Cc1cccc(-c2cncc(-c3nc4c(F)cccc4[nH]3)c2N2CC(N)C(C(F)(F)F)C2)c1` (mixture of isomers), the EC50 in data set [1] came out at 42 nM.
Same read-out and setting: the same measure for `N#Cc1cccc(-c2cncc(-c3nc4c(F)cccc4[nH]3)c2N2C[C@@H](N)[C@H](O)C2)c1` (racemic): 46 nM.
